Assay results reported in US20250074871A1, “PHENETHYLAMINES AND METHODS OF PREPARATION THEREOF” (priority 2022, published 2025).

Columns and labels:
Type in all cases: cell-based
[1] = target: T1, 5-HT2A receptor (Homo sapiens, UniProt P28223); experiment: 5-HT2A Gq dissociation BRET functional assay
T1 construct: expressed in transfected cells; host or cells: HEK293T

[2] = target: T2, 5-HT2B receptor (Homo sapiens, UniProt P41595); experiment: 5-HT2B Gq dissociation BRET functional assay
T2 construct: expressed in transfected cells; host or cells: HEK293T

[3] = target: T3, 5-HT1A (Homo sapiens, UniProt P08908); experiment: 5-HT receptor activity panel (Table 3)
T3 sequence (P08908 1-422): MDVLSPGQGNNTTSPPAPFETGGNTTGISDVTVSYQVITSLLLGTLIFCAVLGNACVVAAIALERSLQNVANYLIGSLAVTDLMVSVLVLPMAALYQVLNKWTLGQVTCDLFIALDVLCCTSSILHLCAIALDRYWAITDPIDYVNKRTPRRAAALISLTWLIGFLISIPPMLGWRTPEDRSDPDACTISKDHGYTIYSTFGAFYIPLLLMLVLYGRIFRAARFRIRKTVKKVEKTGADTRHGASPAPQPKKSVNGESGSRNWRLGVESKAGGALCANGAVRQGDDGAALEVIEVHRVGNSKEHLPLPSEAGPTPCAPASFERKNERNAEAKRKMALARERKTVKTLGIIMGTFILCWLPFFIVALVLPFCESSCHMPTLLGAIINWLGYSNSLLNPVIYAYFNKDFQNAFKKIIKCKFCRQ

[4] = target: 5-HT1B (Homo sapiens, UniProt P28222); experiment: 5-HT receptor activity panel (Table 3)
[5] = target: 5-HT1D (Homo sapiens, UniProt P28221); experiment: 5-HT receptor activity panel (Table 3)
[6] = target: 5-HT1E (Homo sapiens, UniProt P28566); experiment: 5-HT receptor activity panel (Table 3)
[7] = target: T4, 5-HT1F (Homo sapiens, UniProt P30939); experiment: 5-HT receptor activity panel (Table 3); conditions: Table 3
T4 sequence (P30939 1-366): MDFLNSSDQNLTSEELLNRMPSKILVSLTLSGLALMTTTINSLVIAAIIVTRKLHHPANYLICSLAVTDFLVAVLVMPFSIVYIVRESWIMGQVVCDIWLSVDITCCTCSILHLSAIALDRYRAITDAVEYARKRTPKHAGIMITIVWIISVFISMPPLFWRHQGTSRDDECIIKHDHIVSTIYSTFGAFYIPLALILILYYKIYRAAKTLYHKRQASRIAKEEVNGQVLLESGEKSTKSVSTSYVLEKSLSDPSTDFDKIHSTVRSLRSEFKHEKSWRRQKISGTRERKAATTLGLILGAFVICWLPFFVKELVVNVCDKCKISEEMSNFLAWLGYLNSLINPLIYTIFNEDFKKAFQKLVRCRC

[8] = target: 5-HT4 (Homo sapiens, UniProt Q13639); experiment: 5-HT receptor activity panel (Table 3)
[9] = target: 5-HT5A (Homo sapiens, UniProt P47898); experiment: 5-HT receptor activity panel (Table 3)
[10] = target: 5-HT6 (Homo sapiens, UniProt P50406); experiment: 5-HT receptor activity panel (Table 3); conditions: Table 3
[11] = target: 5-HT7 (Homo sapiens, UniProt P34969); experiment: 5-HT receptor activity panel (Table 3)
[12] = Table 2, normalized to % 5-HT stimulation

Chain of 5-HT1D (P28221 whole entry, species assumed): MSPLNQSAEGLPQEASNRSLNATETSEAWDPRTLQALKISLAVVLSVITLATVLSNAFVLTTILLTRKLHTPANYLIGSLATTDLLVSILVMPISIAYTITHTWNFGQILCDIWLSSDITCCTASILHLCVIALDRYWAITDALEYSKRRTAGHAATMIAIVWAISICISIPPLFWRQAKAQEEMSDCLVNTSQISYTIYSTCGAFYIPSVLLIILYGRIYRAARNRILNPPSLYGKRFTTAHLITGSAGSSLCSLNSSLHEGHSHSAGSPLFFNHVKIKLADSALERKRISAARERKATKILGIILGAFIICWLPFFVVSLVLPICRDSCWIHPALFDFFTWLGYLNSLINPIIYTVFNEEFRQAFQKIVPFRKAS
Chain of 5-HT5A (P47898 whole entry, species assumed): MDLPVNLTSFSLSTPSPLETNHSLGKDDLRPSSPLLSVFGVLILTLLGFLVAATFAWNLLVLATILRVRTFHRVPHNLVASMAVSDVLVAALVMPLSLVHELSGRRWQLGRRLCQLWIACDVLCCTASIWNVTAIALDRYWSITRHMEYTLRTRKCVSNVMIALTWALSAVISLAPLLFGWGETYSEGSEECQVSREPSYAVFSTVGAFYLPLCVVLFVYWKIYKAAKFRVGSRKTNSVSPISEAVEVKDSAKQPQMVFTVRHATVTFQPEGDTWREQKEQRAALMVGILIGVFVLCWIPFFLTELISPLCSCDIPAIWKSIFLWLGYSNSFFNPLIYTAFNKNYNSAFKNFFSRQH
Chain of 5-HT7 (P34969 whole entry, species assumed): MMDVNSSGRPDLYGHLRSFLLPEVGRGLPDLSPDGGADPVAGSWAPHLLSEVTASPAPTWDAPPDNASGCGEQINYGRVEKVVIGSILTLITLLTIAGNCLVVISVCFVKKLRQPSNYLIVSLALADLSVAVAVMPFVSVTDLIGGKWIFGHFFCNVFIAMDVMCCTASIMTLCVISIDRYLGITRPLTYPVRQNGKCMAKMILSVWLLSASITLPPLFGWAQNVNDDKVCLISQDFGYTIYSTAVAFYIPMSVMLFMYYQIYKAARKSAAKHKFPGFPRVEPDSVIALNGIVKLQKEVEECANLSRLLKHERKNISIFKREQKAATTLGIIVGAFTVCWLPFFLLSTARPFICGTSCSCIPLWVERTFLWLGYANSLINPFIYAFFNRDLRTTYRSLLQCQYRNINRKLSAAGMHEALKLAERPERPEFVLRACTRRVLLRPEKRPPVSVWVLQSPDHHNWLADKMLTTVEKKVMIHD
Chain of 5-HT4 (Q13639 whole entry, species assumed): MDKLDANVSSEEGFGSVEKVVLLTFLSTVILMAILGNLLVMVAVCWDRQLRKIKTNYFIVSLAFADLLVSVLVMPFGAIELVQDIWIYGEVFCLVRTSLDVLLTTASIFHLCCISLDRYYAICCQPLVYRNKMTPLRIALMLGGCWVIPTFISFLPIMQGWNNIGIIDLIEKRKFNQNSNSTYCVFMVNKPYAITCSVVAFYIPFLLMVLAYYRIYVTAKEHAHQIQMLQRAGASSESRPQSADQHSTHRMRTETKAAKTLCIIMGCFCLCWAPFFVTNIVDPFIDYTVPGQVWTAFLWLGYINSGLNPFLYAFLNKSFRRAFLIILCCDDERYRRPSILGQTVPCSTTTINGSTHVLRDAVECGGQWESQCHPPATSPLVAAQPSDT
T2 sequence (P41595 whole entry): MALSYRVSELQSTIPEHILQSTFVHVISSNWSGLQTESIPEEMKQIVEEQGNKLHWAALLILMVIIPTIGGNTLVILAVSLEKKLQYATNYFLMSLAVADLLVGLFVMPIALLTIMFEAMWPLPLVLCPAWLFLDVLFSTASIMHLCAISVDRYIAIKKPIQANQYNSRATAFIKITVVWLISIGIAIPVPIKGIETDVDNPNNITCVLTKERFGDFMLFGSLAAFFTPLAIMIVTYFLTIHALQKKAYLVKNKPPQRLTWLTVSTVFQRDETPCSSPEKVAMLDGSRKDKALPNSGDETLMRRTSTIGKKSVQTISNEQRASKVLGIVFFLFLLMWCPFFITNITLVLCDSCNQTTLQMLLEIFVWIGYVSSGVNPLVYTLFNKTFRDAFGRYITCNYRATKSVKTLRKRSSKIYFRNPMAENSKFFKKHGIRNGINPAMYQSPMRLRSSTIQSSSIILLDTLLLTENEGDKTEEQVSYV
Chain of 5-HT6 (P50406 whole entry, species assumed): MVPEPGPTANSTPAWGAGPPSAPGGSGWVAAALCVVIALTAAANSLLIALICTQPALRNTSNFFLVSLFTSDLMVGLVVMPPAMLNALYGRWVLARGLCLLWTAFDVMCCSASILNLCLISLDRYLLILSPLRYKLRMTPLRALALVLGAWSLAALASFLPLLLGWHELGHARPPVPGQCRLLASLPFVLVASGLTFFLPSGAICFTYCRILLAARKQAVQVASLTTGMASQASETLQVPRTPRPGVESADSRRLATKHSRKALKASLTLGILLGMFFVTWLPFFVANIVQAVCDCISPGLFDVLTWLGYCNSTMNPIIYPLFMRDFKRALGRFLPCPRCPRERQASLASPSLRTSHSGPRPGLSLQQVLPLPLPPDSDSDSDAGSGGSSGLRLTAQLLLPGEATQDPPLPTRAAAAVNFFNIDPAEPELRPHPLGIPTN
T1 sequence (P28223 whole entry): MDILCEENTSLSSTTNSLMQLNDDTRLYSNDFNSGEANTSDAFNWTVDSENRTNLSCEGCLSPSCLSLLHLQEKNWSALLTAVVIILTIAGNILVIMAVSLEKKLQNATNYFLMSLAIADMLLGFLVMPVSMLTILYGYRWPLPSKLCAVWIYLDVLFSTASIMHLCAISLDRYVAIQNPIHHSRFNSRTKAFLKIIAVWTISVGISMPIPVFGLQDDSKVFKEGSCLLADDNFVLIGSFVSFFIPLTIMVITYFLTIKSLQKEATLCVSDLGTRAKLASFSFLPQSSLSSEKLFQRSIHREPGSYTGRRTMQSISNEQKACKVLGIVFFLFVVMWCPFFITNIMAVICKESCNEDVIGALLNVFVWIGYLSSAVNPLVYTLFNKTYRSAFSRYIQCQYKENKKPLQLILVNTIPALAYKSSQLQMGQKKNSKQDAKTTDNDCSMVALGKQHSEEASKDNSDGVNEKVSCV
Chain of 5-HT1E (P28566 whole entry, species assumed): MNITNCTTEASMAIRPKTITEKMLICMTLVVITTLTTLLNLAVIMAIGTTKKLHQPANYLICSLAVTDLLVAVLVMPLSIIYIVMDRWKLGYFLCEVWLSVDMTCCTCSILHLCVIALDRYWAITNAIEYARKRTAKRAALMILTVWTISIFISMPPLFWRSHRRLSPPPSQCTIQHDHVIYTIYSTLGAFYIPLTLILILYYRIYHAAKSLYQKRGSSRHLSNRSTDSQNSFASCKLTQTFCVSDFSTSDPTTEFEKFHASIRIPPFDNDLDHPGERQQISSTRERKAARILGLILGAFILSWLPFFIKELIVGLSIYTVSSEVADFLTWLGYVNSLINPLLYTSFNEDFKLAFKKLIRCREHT
Chain of 5-HT1B (P28222 whole entry, species assumed): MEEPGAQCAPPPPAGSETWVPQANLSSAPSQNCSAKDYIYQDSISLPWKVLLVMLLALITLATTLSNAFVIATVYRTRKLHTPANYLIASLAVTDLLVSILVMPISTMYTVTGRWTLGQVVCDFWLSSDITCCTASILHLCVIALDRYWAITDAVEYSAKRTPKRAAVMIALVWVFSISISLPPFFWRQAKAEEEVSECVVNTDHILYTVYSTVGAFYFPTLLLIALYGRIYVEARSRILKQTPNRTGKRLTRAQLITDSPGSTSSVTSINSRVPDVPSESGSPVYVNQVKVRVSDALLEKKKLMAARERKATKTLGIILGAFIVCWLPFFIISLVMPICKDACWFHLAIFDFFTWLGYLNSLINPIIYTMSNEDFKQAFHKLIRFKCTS

CN(C)CCc1c[nH]c2cccc(O)c12 [psilocin, reference compound]
5-HT2A BRET Eff % [1, 12]: 82% | 5-HT2A Eff, % ([1]; Table 3 panel): 80% | 5-HT2B BRET Eff % [2, 12]: 63% | 5-HT2B Eff, % ([2]; Table 3 panel): 32% | EC50 [3]: 46.9 nM | 5-HT1A Eff, % ([3]; Table 3): 93% | EC50 [4]: 14.3 nM | 5-HT1B Eff, % ([4]; Table 3): 94% | EC50 [5]: 2.2 nM | 5-HT1D Eff, % ([5]; Table 3): 102% | EC50 [6]: 10.4 nM | 5-HT1E Eff, % ([6]; Table 3): 90% | 5-HT1F Eff, % [7]: 93% | EC50 [8]: 563 nM | 5-HT4 Eff, % ([8]; Table 3): 81% | EC50 [9]: 349 nM | 5-HT5A Eff, % ([9]; Table 3): 48% | 5-HT6 Eff, % [10]: 74% | EC50 ([10]; read-out: 5-HT6 EC50): 182 nM | EC50 [11]: 525 nM | 5-HT7 Eff, % ([11]; Table 3): 86%
